Among the data in US20260007684A1, “AMIDE DERIVATIVES FOR INHIBITING NLRP3 AND USES THEREOF” (Ventus Therapeutics U.S., Inc., priority 2023, published 2026) are IC50 values, retold here.

Chain of human NLRP3 (Q96P20 whole entry): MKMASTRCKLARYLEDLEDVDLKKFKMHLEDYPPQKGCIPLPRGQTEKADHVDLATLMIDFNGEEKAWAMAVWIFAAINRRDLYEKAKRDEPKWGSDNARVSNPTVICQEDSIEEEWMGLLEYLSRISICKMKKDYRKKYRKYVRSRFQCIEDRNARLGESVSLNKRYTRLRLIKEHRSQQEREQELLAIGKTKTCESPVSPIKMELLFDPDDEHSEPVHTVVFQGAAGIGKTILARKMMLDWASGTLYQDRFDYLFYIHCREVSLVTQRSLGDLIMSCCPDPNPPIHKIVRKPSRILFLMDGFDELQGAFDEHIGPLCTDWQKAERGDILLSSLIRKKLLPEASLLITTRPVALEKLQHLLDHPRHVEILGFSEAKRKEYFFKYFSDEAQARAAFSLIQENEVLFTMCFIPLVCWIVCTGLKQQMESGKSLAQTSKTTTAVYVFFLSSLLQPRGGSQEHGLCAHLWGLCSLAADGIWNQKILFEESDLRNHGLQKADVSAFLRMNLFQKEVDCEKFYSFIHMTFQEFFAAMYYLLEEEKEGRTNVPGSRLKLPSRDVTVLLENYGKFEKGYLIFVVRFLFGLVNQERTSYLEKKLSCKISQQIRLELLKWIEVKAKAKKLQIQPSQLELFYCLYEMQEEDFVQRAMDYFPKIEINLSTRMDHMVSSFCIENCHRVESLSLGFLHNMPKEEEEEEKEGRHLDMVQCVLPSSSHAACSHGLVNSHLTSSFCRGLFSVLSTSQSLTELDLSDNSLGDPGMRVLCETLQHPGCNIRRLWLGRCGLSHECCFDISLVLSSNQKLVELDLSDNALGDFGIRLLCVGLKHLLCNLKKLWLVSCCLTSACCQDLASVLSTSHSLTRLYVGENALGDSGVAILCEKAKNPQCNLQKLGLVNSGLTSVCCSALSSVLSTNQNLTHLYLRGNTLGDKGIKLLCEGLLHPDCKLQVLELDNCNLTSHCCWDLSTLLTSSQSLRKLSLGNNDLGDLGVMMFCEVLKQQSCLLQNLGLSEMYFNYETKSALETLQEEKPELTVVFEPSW

The first assay has as its target human NLRP3 (Homo sapiens (Human), UniProt Q96P20). Briefly: Scintillation Proximity (SPA) NLRP3 Assay: displacement of 3H-MCC950. In kind it is binding. The settings on record: SPA IC50, displacement of 3H-MCC950. (In general: In a scintillation proximity assay essentially only radioactivity close to the scintillant gives light.)
`C[C@H]1C[C@H]2CC[C@@H]([C@H](NC(=O)C3(c4ccc(C(F)(F)F)cc4)CC3)C1)N2c1nnn[nH]1` [104G*, N-((1S,2R,4R,6R)-4-methyl-9-(1H-tetrazol-5-yl)-9-azabicyclo[4.2.1]nonan-2-yl)-1-(4-(trifluoromethyl)phenyl)cyclopropane-1-carboxamide] displayed an IC50 of 50 to 100 µM.
The same measure, in the same setting: next, `O=C(N[C@@H]1CCC[C@@H]2CC[C@H]1N2c1nnn[nH]1)C1(c2ccc(Cl)cc2)CC1` (single isomer, unassigned) [9A*, N-(9-(1H-tetrazol-5-yl)-9-azabicyclo[4.2.1]nonan-2-yl)-1-(4-chlorophenyl)cyclopropane-1-carboxamide]: 1 to 10 µM.

Staying with this assay, now noted: displacement of 3H-MCC950; read-out: SPA IC50.
Consider `Cc1cc(C2(C(=O)N[C@@H]3C[C@@H](C)CCN(c4nnn[nH]4)C3)CC2)ccc1C(F)(F)F` (single isomer, unassigned) [6C*, N-(5-methyl-1-(1H-tetrazol-5-yl)azepan-3-yl)-1-(3-methyl-4-(trifluoromethyl)phenyl)cyclopropane-1-carboxamide], for which the IC50 was greater than 100 µM.
The same measure, in the same setting: as for `C[C@@H]1CCN(c2nnn[nH]2)C[C@@H](NC(=O)C2(c3ccc(C(F)(F)F)cc3)CC2)C1` (single isomer, unassigned) [61C*], the figure is 50 to 100 µM.
The same measure, in the same setting: as for `C[C@@H]1CCN(c2nnn[nH]2)C[C@@H](NC(=O)C2(c3ccc(Cl)cc3Cl)CC2)C1` (single isomer, unassigned) [55B*], the figure is 10 to 50 µM; as for `C[C@H]1CCN(c2nnn[nH]2)C[C@H](NC(=O)C2(c3ccc(C(F)(F)F)c(F)c3O)CC2)C1` (single isomer, unassigned) [31C*, 1-(3-fluoro-2-hydroxy-4-(trifluoromethyl)phenyl)-N-(5-methyl-1-(1H-tetrazol-5-yl)azepan-3-yl)cyclopropane-1-carboxamide], 10 to 50 µM; as for `Cc1ccc(C2(C(=O)N[C@H]3C[C@@H](C)CCN(c4nnn[nH]4)C3)CC2)c(O)c1` (single isomer, unassigned) [67D*], 1 to 10 µM.
`C[C@H]1CCN(c2nnn[nH]2)C[C@@H](NC(=O)C2(c3ccc(SC(F)(F)F)cc3)CC2)C1` (single isomer, unassigned) [69D*]: the IC50 was 10 to 50 µM.
Take `O=C(N[C@H]1CC[C@@H]2CC[C@H]1N2c1nnn[nH]1)C1(c2ccc(OC(F)F)cc2O)CC1` [77B*, N-((1R,2S,5R)-8-(1H-tetrazol-5-yl)-8-azabicyclo[3.2.1]octan-2-yl)-1-(4-(difluoromethoxy)-2-hydroxyphenyl)cyclopropane-1-carboxamide]: the IC50 lay within 10 to 50 µM.
As to `Cc1ccc(C2(C(=O)N[C@H]3C[C@H](C)CCN(c4nnn[nH]4)C3)CC2)c(O)c1F` (single isomer, unassigned) [22B*, 1-(3-fluoro-2-hydroxy-4-methylphenyl)-N-(5-methyl-1-(1H-tetrazol-5-yl)azepan-3-yl)cyclopropane-1-carboxamide], the IC50 is 1 to 10 µM.
For `C[C@@H]1[C@H](NC(=O)C2(c3ccc(Cl)cc3)CC2)CCCN1c1nnn[nH]1` [Compound 40A, 1-(4-chlorophenyl)-N-[(2R,3R)-2-methyl-1-(1H-tetrazol-5-yl)-3-piperidyl]cyclopropanecarboxamide], the IC50 is greater than 100 µM.
Still for that read-out and setting: as for `Cc1c(Cl)ccc(C2(C(=O)N[C@@H]3C[C@@H](C)CCN(c4nnn[nH]4)C3)CC2)c1O` (single isomer, unassigned) [21C*, 1-(4-chloro-2-hydroxy-3-methylphenyl)-N-(5-methyl-1-(1H-tetrazol-5-yl)azepan-3-yl)cyclopropane-1-carboxamide], the figure is greater than 100 µM.
Still for that read-out and setting: next, `O=C(N[C@@H]1C[C@H](C(F)(F)F)[C@H]2CC[C@@H]1N2c1nnn[nH]1)C1(c2ccc(Cl)cc2)CC1` (single isomer, unassigned) [103C*]: greater than 100 µM.
The same measure, in the same setting: as for `C[C@H]1CCN(c2nnn[nH]2)C[C@H](NC(=O)C2(c3ccc(OC(F)F)cc3O)CC2)C1` (single isomer, unassigned) [70C*], the figure is 10 to 50 µM.
On to `C[C@H]1CCN(c2nnn[nH]2)C[C@H](NC(=O)C2(c3ccc(OC(F)F)c(F)c3)CC2)C1` (single isomer, unassigned) [73C*], for which the IC50 lay in the range of 10 to 50 µM.
Still for that read-out and setting: as for `C[C@@H]1C[C@H](NC(=O)C2(c3ccc(C(F)(F)F)cc3)CC2)[C@H]2CC[C@@H]1N2c1nnn[nH]1` [79B*, N-((1R,2S,4R,5S)-4-methy1-8-(1H-tetrazol-5-yl)-8-azabicyclo[3.2.1]octan-2-yl)-1-(4-(trifluoromethyl)phenyl)cyclopropane-1-carboxamide], the figure is 10 to 50 µM; as for `C[C@H]1CCN(c2nnn[nH]2)C[C@H](NC(=O)C2(c3ccc(Cl)c(F)c3F)CC2)C1` (single isomer, unassigned) [4C*, 1-(4-chloro-2,3-difluorophenyl)-N-(5-methyl-1-(1H-tetrazol-5-yl)azepan-3-yl)cyclopropane-1-carboxamide], 50 to 100 µM.
For the molecule `C[C@@H]1CCN(c2nnn[nH]2)C[C@@H](NC(=O)C2(c3ccc(Cl)c(F)c3O)CC2)C1` (single isomer, unassigned) [18B*, 1-(4-chloro-3-fluoro-2-hydroxyphenyl)-N-(5-methyl-1-(1H-tetrazol-5-yl)azepan-3-yl)cyclopropane-1-carboxamide], the IC50 lay within 1 to 10 µM.
Same read-out and setting: next, `C[C@H]1CCN(c2nnn[nH]2)C[C@@H](NC(=O)C2(c3ccc(OC(F)(F)F)cc3O)CC2)C1` (single isomer, unassigned) [62D*]: 1 to 10 µM; `C[C@H]1CCN(c2nnn[nH]2)C[C@H](NC(=O)C2(c3ccc(C(F)(F)F)cc3O)CC2)C1` (single isomer, unassigned) [63C*]: 10 to 50 µM; `C[C@@H]1CCN(c2nnn[nH]2)C[C@@H](NC(=O)C2(c3ccc(C4CC4)c(F)c3O)CC2)C1` (single isomer, unassigned) [32B*, 1-(4-cyclopropyl-3-fluoro-2-hydroxyphenyl)-N-(5-methyl-1-(1H-tetrazol-5-yl)azepan-3-yl)cyclopropane-1-carboxamide]: 1 to 10 µM.
Still for that read-out and setting: next, `C[C@H]1C[C@@H](NC(=O)C2(c3ccc(OC(F)F)cc3)CC2)[C@@H]2CC[C@H]1N2c1nnn[nH]1` (single isomer, unassigned) [35C*]: greater than 100 µM.
Same read-out and setting: as for `O=C(N[C@H]1C[C@H](C(F)(F)F)[C@H]2CC[C@@H]1N2c1nnn[nH]1)C1(c2ccc(Cl)cc2)CC1` (single isomer, unassigned) [103D*], the figure is 10 to 50 µM.
For `C[C@@H]1C[C@H](NC(=O)C2(c3ccc(OC(F)(F)F)cc3)CC2)[C@H]2CC[C@@H]1N2c1nnn[nH]1` [82B*, N-((1R,2S,4R,5S)-4-methyl-8-(1H-tetrazol-5-yl)-8-azabicyclo[3.2.1]octan-2-yl)-1-(4-(trifluoromethoxy)phenyl)cyclopropane-1-carboxamide], the IC50 is greater than 100 µM.
The same measure, in the same setting: next, `C[C@H]1CCN(c2nnn[nH]2)C[C@H](NC(=O)C2(c3ccc(OC(F)(F)F)cc3)CC2)C1` (single isomer, unassigned) [57C*]: greater than 100 µM; `C[C@@H]1CCN(c2nnn[nH]2)CC(NC(=O)C2(c3ccc(OC(F)F)cc3)CC2)C1` (stereo in doubt) [58B*, 1-(4-(difluoromethoxy)phenyl)-N-((3S,5R)-5-methyl-1-(1H-tetrazol-5-yl)azepan-3-yl)cyclopropane-1-carboxamide]: 1 to 10 µM; `C[C@H]1CCN(c2nnn[nH]2)C[C@H](NC(=O)C2(c3ccc(OC(F)(F)F)cc3F)CC2)C1` (single isomer, unassigned) [64C*]: 50 to 100 µM.
On to `C[C@H]1C[C@H](NC(=O)C2(c3ccc(OC(F)(F)F)cc3)CC2)[C@@H]2CC[C@H]1N2c1nnn[nH]1` [82D*, N-((1S,2S,4S,5R)-4-methy1-8-(1H-tetrazol-5-yl)-8-azabicyclo[3.2.1]octan-2-yl)-1-(4-(trifluoromethoxy)phenyl)cyclopropane-1-carboxamide], for which the IC50 was greater than 100 µM.
Same read-out and setting: next, `C[C@H]1CCN(c2nnn[nH]2)C[C@@H](NC(=O)C2(c3ccc(C(F)(F)F)cc3F)CC2)C1` (single isomer, unassigned) [68D*]: 1 to 10 µM; `Cc1cc(C2(C(=O)N[C@H]3C[C@H](C)CCN(c4nnn[nH]4)C3)CC2)ccc1C(F)(F)F` (single isomer, unassigned) [6B*, N-(5-methyl-1-(1H-tetrazol-5-yl)azepan-3-yl)-1-(3-methyl-4-(trifluoromethyl)phenyl)cyclopropane-1-carboxamide]: 50 to 100 µM; `C[C@@H]1CC[C@@H](NC(=O)C2(c3ccc(Cl)cc3)CC2)CN(c2nnn[nH]2)C1` (single isomer, unassigned) [36C*, 1-(4-chlorophenyl)-N-(6-methyl-1-(1H-tetrazol-5-yl)azepan-3-yl)cyclopropane-1-carboxamide]: greater than 100 µM.
The same measure, in the same setting: next, `C[C@@H]1C[C@H](NC(=O)C2(c3ccc(Cl)cc3)CC2)[C@H]2CC[C@@H]1N2c1nnn[nH]1` [80B*, 1-(4-chlorophenyl)-N-((1R,2S,4R,5S)-4-methyl-8-(1H-tetrazol-5-yl)-8-azabicyclo[3.2.1]octan-2-yl)cyclopropane-1-carboxamide]: 10 to 50 µM; `C[C@@H]1CCN(c2nnn[nH]2)C[C@@H](NC(=O)C2(c3ccc(Cl)c(F)c3)CC2)C1` (single isomer, unassigned) [65B*]: 10 to 50 µM; `C[C@H]1CCN(c2nnn[nH]2)C[C@@H](NC(=O)C2(c3ccc(Br)cc3)CC2)C1` (single isomer, unassigned) [59D*]: 1 to 10 µM.
The same measure, in the same setting: next, `C[C@H]1CCN(c2nnn[nH]2)C[C@H](NC(=O)C2(c3ccc(OC(F)(F)F)c(F)c3O)CC2)C1` (single isomer, unassigned) [28C*, 1-(3-fluoro-2-hydroxy-4-(trifluoromethoxy)phenyl)-N-(5-methyl-1-(1H-tetrazol-5-yl)azepan-3-yl)cyclopropane-1-carboxamide]: greater than 100 µM; `C[C@H]1CCN(c2nnn[nH]2)C[C@@H](NC(=O)C2(c3ccc(Cl)c(F)c3F)CC2)C1` (single isomer, unassigned) [4D*, 1-(4-chloro-2,3-difluorophenyl)-N-(5-methyl-1-(1H-tetrazol-5-yl)azepan-3-yl)cyclopropane-1-carboxamide]: 1 to 10 µM; `O=C(N[C@H]1C[C@@H](C(F)(F)F)[C@@H]2CC[C@H]1N2c1nnn[nH]1)C1(c2ccc(Cl)cc2)CC1` (single isomer, unassigned) [103B*]: greater than 100 µM.

One may read the IC50 as the midpoint of a concentration-inhibition curve.
